Assay results reported in ChEMBL document CHEMBL4387748, “Chalcone derivatives bearing chromen or benzo[f]chromen moieties: Design, synthesis, and evaluations of anti-inflammatory, analgesic, selective COX-2 inhibitory activities” (Bioorg Med Chem Lett, 2019).
pIC50: −log10 of the molar value.

What was measured:
Mus musculus [1] = test: Anti-inflammatory activity in mouse assessed as inhibition of xylene-induced ear edema at 30 mg/kg, ip dosed prior to xylene challenge and measured 1 hr post xylene injection relative to control; type: functional
Mus musculus [2] = test: Analgesic activity in mouse at 30 mg/kg, ip measured after 60 mins by hot plate technique relative to control; type: functional; settings: 1 h
[3] = Selectivity index, ratio of IC50 for COX1 (unknown origin) to IC50 for COX2 (unknown origin); settings: Homo sapiens
[4] = target: Prostaglandin G/H synthase 1 (Ovis aries) (UniProt P05979)
[5] = target: Prostaglandin G/H synthase 2 (Ovis aries) (UniProt P79208)
Chain of Prostaglandin G/H synthase 2 (Ovis aries) (P79208 whole entry, looked up): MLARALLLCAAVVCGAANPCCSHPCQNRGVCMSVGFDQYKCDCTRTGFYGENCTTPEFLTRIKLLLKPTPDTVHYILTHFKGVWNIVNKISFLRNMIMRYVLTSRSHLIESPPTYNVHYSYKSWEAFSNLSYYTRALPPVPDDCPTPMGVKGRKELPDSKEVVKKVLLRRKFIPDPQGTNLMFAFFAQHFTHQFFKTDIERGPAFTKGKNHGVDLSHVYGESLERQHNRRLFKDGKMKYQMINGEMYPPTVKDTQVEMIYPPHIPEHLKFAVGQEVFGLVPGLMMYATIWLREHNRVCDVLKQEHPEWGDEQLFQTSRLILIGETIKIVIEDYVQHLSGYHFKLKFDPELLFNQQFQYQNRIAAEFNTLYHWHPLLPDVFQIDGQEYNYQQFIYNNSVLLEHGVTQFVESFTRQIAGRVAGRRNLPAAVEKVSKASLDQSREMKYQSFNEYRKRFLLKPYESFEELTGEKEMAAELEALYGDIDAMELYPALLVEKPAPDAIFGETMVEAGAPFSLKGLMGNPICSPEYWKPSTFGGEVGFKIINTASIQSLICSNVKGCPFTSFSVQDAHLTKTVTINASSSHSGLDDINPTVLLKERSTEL

Q: With `COc1ccc(C(=O)/C=C/C2=Cc3ccccc3OC2)cc1OC` as the compound, how does the inhibition in vivo at 30 mg/kg (Mus musculus [1]) read?
A: 67.6%

Q: And the inhibition in vivo at 30 mg/kg (Mus musculus [2])?
A: 66.7 to 100%

Q: And the Ratio IC50 [3]?
A: 15.4

Q: What about the pIC50 [4] of the same compound?
A: 5.15

Q: And the pIC50 [5]?
A: 6.34

Q: With `O=C(/C=C/C1=Cc2c(ccc3ccccc23)OC1)c1ccccc1Br` as the compound, how does the inhibition in vivo at 30 mg/kg (Mus musculus [1]) read?
A: 79.8%

Q: And the inhibition in vivo at 30 mg/kg (Mus musculus [2])?
A: 96.2 to 100%

Q: With `O=C(/C=C/C1=Cc2ccccc2OC1)c1ccc(F)cc1` as the compound, how does the inhibition in vivo at 30 mg/kg (Mus musculus [1]) read?
A: 65.6%

Q: What about the inhibition in vivo at 30 mg/kg (Mus musculus [2]) of the same compound?
A: 66.7 to 100%

Q: What about the Ratio IC50 [3] of the same compound?
A: 22.5

Q: And the pIC50 [4]?
A: 5.08

Q: And the pIC50 [5]?
A: 6.43

Q: With `Cc1ccc(C(=O)/C=C/C2=Cc3c(ccc4ccccc34)OC2)cc1C` as the compound, how does the inhibition in vivo at 30 mg/kg (Mus musculus [1]) read?
A: 54.2%

Q: What about the inhibition in vivo at 30 mg/kg (Mus musculus [2]) of the same compound?
A: 96.2 to 100%

Q: What does the source list for `COc1ccc(C(=O)/C=C/C2=Cc3ccccc3OC2)cc1`?
A: inhibition in vivo at 30 mg/kg (Mus musculus [1]): 66.2%; inhibition in vivo at 30 mg/kg (Mus musculus [2]): 66.7 to 100%; Ratio IC50 [3]: 20; pIC50 [4]: 5.04; pIC50 [5]: 6.34

Q: With `O=C(/C=C/C1=Cc2ccccc2OC1)c1ccccc1F` as the compound, how does the inhibition in vivo at 30 mg/kg (Mus musculus [1]) read?
A: 64.4%

Q: What about the inhibition in vivo at 30 mg/kg (Mus musculus [2]) of the same compound?
A: 66.7 to 100%

Q: Which results are given for `O=C(/C=C/C1=Cc2ccccc2OC1)c1cccc(F)c1`?
A: inhibition in vivo at 30 mg/kg (Mus musculus [1]): 52.4%; inhibition in vivo at 30 mg/kg (Mus musculus [2]): 66.7 to 100%

Q: Which inhibition in vivo at 30 mg/kg (Mus musculus [1]) does the source give for `CCc1ccc(C(=O)/C=C/C2=Cc3ccccc3OC2)cc1` here?
A: 68.1%

Q: And the inhibition in vivo at 30 mg/kg (Mus musculus [2])?
A: 66.7 to 100%

Q: What about the Ratio IC50 [3] of the same compound?
A: 15.9

Q: What about the pIC50 [4] of the same compound?
A: 5.21

Q: What about the pIC50 [5] of the same compound?
A: 6.41

Q: Which results are given for `O=C(/C=C/C1=Cc2ccccc2OC1)c1cccc(Cl)c1`?
A: inhibition in vivo at 30 mg/kg (Mus musculus [1]): 51%; inhibition in vivo at 30 mg/kg (Mus musculus [2]): 66.7 to 100%

Q: Which results are given for `O=C(/C=C/C1=Cc2ccccc2OC1)c1ccc([N+](=O)[O-])cc1`?
A: inhibition in vivo at 30 mg/kg (Mus musculus [1]): 50.8%; inhibition in vivo at 30 mg/kg (Mus musculus [2]): 85.1%

Q: With `Cc1ccc(C(=O)/C=C/C2=Cc3ccccc3OC2)cc1C` as the compound, how does the inhibition in vivo at 30 mg/kg (Mus musculus [1]) read?
A: 48.1%

Q: And the inhibition in vivo at 30 mg/kg (Mus musculus [2])?
A: 66.7 to 100%

Q: Which inhibition in vivo at 30 mg/kg (Mus musculus [1]) does the source give for `O=C(/C=C/C1=Cc2c(ccc3ccccc23)OC1)c1ccccc1Cl` here?
A: 66.1%

Q: And the inhibition in vivo at 30 mg/kg (Mus musculus [2])?
A: 96.2 to 100%

Q: Which inhibition in vivo at 30 mg/kg (Mus musculus [1]) does the source give for `O=C(/C=C/C1=Cc2c(ccc3ccccc23)OC1)c1ccc(C(F)(F)F)cc1` here?
A: 83.6%

Q: And the inhibition in vivo at 30 mg/kg (Mus musculus [2])?
A: 100%

Q: And the Ratio IC50 [3]?
A: 26.1

Q: What about the pIC50 [4] of the same compound?
A: 5.06

Q: And the pIC50 [5]?
A: 6.48

Q: Which inhibition in vivo at 30 mg/kg (Mus musculus [1]) does the source give for `O=C(/C=C/C1=Cc2c(ccc3ccccc23)OC1)c1ccc(Cl)cc1` here?
A: 67.1%

Q: What about the inhibition in vivo at 30 mg/kg (Mus musculus [2]) of the same compound?
A: 96.2 to 100%

Q: For `O=C(/C=C/C1=Cc2ccccc2OC1)c1ccc(Cl)cc1Cl`, which inhibition in vivo at 30 mg/kg (Mus musculus [1]) is on record?
A: 53.3%

Q: What about the inhibition in vivo at 30 mg/kg (Mus musculus [2]) of the same compound?
A: 66.7 to 100%

Q: Which inhibition in vivo at 30 mg/kg (Mus musculus [1]) does the source give for `O=C(/C=C/C1=Cc2ccccc2OC1)c1ccc(Cl)cc1` here?
A: 56.1%

Q: And the inhibition in vivo at 30 mg/kg (Mus musculus [2])?
A: 66.7 to 100%

Q: For `COc1ccc2c(c1)c(CC(=O)O)c(C)n2C(=O)c1ccc(Cl)cc1` [INDOMETHACIN], which inhibition in vivo at 30 mg/kg (Mus musculus [1]) is on record?
A: 64.3 to 82.2%

Q: For `COc1ccc(C(=O)/C=C/C2=Cc3c(ccc4ccccc34)OC2)cc1`, which inhibition in vivo at 30 mg/kg (Mus musculus [1]) is on record?
A: 79.3%

Q: And the inhibition in vivo at 30 mg/kg (Mus musculus [2])?
A: 96.2 to 100%

Q: And the Ratio IC50 [3]?
A: 23.8

Q: What about the pIC50 [4] of the same compound?
A: 5.04

Q: What about the pIC50 [5] of the same compound?
A: 6.42

Q: Which results are given for `O=C(/C=C/C1=Cc2ccccc2OC1)c1cccc(Br)c1`?
A: inhibition in vivo at 30 mg/kg (Mus musculus [1]): 51.7%; inhibition in vivo at 30 mg/kg (Mus musculus [2]): 66.7 to 100%

Q: What does the source list for `Nc1ccc(C(=O)/C=C/C2=Cc3ccccc3OC2)cc1`?
A: inhibition in vivo at 30 mg/kg (Mus musculus [1]): 52.6%; inhibition in vivo at 30 mg/kg (Mus musculus [2]): 66.7 to 100%

Q: With `O=C(/C=C/C1=Cc2c(ccc3ccccc23)OC1)c1cccc(F)c1` as the compound, how does the inhibition in vivo at 30 mg/kg (Mus musculus [1]) read?
A: 70.1%

Q: What about the inhibition in vivo at 30 mg/kg (Mus musculus [2]) of the same compound?
A: 96.2 to 100%

Q: What does the source list for `CN(C)c1ccc(C(=O)/C=C/C2=Cc3c(ccc4ccccc34)OC2)cc1`?
A: inhibition in vivo at 30 mg/kg (Mus musculus [1]): 67.2%; inhibition in vivo at 30 mg/kg (Mus musculus [2]): 96.2 to 100%

Q: What does the source list for `Cc1ccc(C(=O)/C=C/C2=Cc3c(ccc4ccccc34)OC2)cc1`?
A: inhibition in vivo at 30 mg/kg (Mus musculus [1]): 74.6%; inhibition in vivo at 30 mg/kg (Mus musculus [2]): 96.2 to 100%

Q: What does the source list for `O=C(/C=C/C1=Cc2ccccc2OC1)c1ccc(Br)cc1`?
A: inhibition in vivo at 30 mg/kg (Mus musculus [1]): 66%; inhibition in vivo at 30 mg/kg (Mus musculus [2]): 66.7 to 100%; Ratio IC50 [3]: 17.2; pIC50 [4]: 5.14; pIC50 [5]: 6.38

Q: For `O=C(/C=C/C1=Cc2ccccc2OC1)c1ccccc1Cl`, which inhibition in vivo at 30 mg/kg (Mus musculus [1]) is on record?
A: 52.3%

Q: What about the inhibition in vivo at 30 mg/kg (Mus musculus [2]) of the same compound?
A: 66.7 to 100%

Q: With `Cc1ccc(C(=O)/C=C/C2=Cc3ccccc3OC2)cc1` as the compound, how does the inhibition in vivo at 30 mg/kg (Mus musculus [1]) read?
A: 53.1%

Q: And the inhibition in vivo at 30 mg/kg (Mus musculus [2])?
A: 66.7 to 100%

Q: Which inhibition in vivo at 30 mg/kg (Mus musculus [1]) does the source give for `O=C(/C=C/C1=Cc2c(ccc3ccccc23)OC1)c1cccc(Br)c1` here?
A: 67.9%

Q: What about the inhibition in vivo at 30 mg/kg (Mus musculus [2]) of the same compound?
A: 96.2 to 100%

Q: What does the source list for `O=C(/C=C/C1=Cc2ccccc2OC1)c1ccc(C(F)(F)F)cc1`?
A: inhibition in vivo at 30 mg/kg (Mus musculus [1]): 75.5%; inhibition in vivo at 30 mg/kg (Mus musculus [2]): 100%; Ratio IC50 [3]: 9.34; pIC50 [4]: 5.11; pIC50 [5]: 6.08

Q: Which inhibition in vivo at 30 mg/kg (Mus musculus [1]) does the source give for `O=C(/C=C/C1=Cc2c(ccc3ccccc23)OC1)c1ccc(F)cc1` here?
A: 57.3%

Q: And the inhibition in vivo at 30 mg/kg (Mus musculus [2])?
A: 96.2 to 100%

Q: Which inhibition in vivo at 30 mg/kg (Mus musculus [1]) does the source give for `COc1ccc(C(=O)/C=C/C2=Cc3c(ccc4ccccc34)OC2)cc1OC` here?
A: 55.1%

Q: What about the inhibition in vivo at 30 mg/kg (Mus musculus [2]) of the same compound?
A: 96.2 to 100%

Q: Which results are given for `Nc1ccc(C(=O)/C=C/C2=Cc3c(ccc4ccccc34)OC2)cc1`?
A: inhibition in vivo at 30 mg/kg (Mus musculus [1]): 67.1%; inhibition in vivo at 30 mg/kg (Mus musculus [2]): 96.2 to 100%

Q: What does the source list for `CN(C)c1ccc(C(=O)/C=C/C2=Cc3ccccc3OC2)cc1`?
A: inhibition in vivo at 30 mg/kg (Mus musculus [1]): 57.3%; inhibition in vivo at 30 mg/kg (Mus musculus [2]): 66.7 to 100%

Q: With `O=C(/C=C/C1=Cc2ccccc2OC1)c1ccccc1Br` as the compound, how does the inhibition in vivo at 30 mg/kg (Mus musculus [1]) read?
A: 56.6%

Q: And the inhibition in vivo at 30 mg/kg (Mus musculus [2])?
A: 66.7 to 100%

Q: Which inhibition in vivo at 30 mg/kg (Mus musculus [1]) does the source give for `O=C(/C=C/C1=Cc2c(ccc3ccccc23)OC1)c1ccc(Br)cc1` here?
A: 57.5%

Q: And the inhibition in vivo at 30 mg/kg (Mus musculus [2])?
A: 96.2 to 100%

Q: For `O=C(/C=C/C1=Cc2c(ccc3ccccc23)OC1)c1ccc([N+](=O)[O-])cc1`, which inhibition in vivo at 30 mg/kg (Mus musculus [1]) is on record?
A: 76.3%

Q: And the inhibition in vivo at 30 mg/kg (Mus musculus [2])?
A: 100%

Q: And the Ratio IC50 [3]?
A: 31.1

Q: And the pIC50 [4]?
A: 5.11

Q: And the pIC50 [5]?
A: 6.60

Q: With `O=C(/C=C/C1=Cc2c(ccc3ccccc23)OC1)c1cccc(Cl)c1` as the compound, how does the inhibition in vivo at 30 mg/kg (Mus musculus [1]) read?
A: 75%

Q: What about the inhibition in vivo at 30 mg/kg (Mus musculus [2]) of the same compound?
A: 96.2 to 100%

Q: Which inhibition in vivo at 30 mg/kg (Mus musculus [1]) does the source give for `CCc1ccc(C(=O)/C=C/C2=Cc3c(ccc4ccccc34)OC2)cc1` here?
A: 83.1%

Q: And the inhibition in vivo at 30 mg/kg (Mus musculus [2])?
A: 96.2 to 100%

Q: And the Ratio IC50 [3]?
A: 20.7

Q: What about the pIC50 [4] of the same compound?
A: 5.05

Q: What about the pIC50 [5] of the same compound?
A: 6.37

Q: Which results are given for `O=C(/C=C/C1=Cc2c(ccc3ccccc23)OC1)c1ccc(Cl)cc1Cl`?
A: inhibition in vivo at 30 mg/kg (Mus musculus [1]): 84.1%; inhibition in vivo at 30 mg/kg (Mus musculus [2]): 100%; Ratio IC50 [3]: 27.3; pIC50 [4]: 5.10; pIC50 [5]: 6.54

Q: For `O=C(/C=C/C1=Cc2c(ccc3ccccc23)OC1)c1ccccc1F`, which inhibition in vivo at 30 mg/kg (Mus musculus [1]) is on record?
A: 73.3%

Q: What about the inhibition in vivo at 30 mg/kg (Mus musculus [2]) of the same compound?
A: 96.2 to 100%

Q: And the Ratio IC50 [3]?
A: 20.7

Q: What about the pIC50 [4] of the same compound?
A: 5.19

Q: And the pIC50 [5]?
A: 6.51
